The values that follow come from patent US6403615B1, “2-Aryl-3-aroylbenzo {b} thiophenes useful for the treatment of estrogen deprivation syndrome” (Eli Lilly and Company, priority 1997, dated 2002).

Data set [1] deals with ovariectomized (OVX) rats. Description: Osteoporosis (bone mineral density) in ovariectomized rat model. The data set is classed as in vivo, Sprague Dawley rats. The note with it: oral in 20% hydroxypropyl β-cyclodextrin, daily for 35 days, femur x-ray image analysis, tibia quantitative computed tomography. An excerpt:
Seventy-five day old female Sprague Dawley rats (weight range of 200g to 225 g) are obtained from Charles River Laboratories (Portage, Mich.). The animals are either bilaterally ovariectomized (OVX) or exposed to a Sham surgical procedure at Charles River Laboratories, and then shipped after one week. Upon arrival, they are housed in metal hanging cages in groups of 3 or 4 per cage and have ad libitum access to food (calcium content approximately 0.5%) and water for one week. Room temperature is maintained at 22.2°±1.7° C. with a minimum relative humidity of 40%. The photoperiod in the room is 12 hours light and 12 hours dark.
Following the General Procedure, infra, the rats are treated daily for 35 days (6 rats per treatment group) and sacrificed by carbon dioxide asphyxiation on the 36th day. The 35 day time period is sufficient to allow maximal reduction in bone density, measured as described herein. At the time of sacrifice, the uteri are removed, dissected free of extraneous tissue, and the fluid contents are expelled before determination of wet weight in order to confirm estrogen deficiency associated with complete ovariectomy. […]
The right femurs are excised and digitilized x-rays generated and analyzed by an image analysis program (NIH image) at the distal metaphysis. The proximal aspect of the tibiae from these animals are also scanned by quantitative computed tomography.

On to `COc1ccc(C(=O)c2c(-c3ccc(O)cc3)sc3cc(O)ccc23)cc1` [Example 2, 2-(4-Hydroxyphenyl)-3-(4-Methoxybenzoyl)-6-Hydroxybenzo[b]thiophene], for which the melting point lay within 138 to 140 °C.

For `COc1ccc(-c2sc3cc(OC)ccc3c2C(=O)c2ccc(O)cc2)cc1` [Example 3, 2-(4-Methoxyphenyl)-3-(4-Hydroxybenzoyl)-6-Methoxybenzo[b]thiophene], the melting point lay within 114 to 116 °C.

Consider `C#C[C@]1(O)CC[C@H]2[C@@H]3CCc4cc(O)ccc4[C@H]3CC[C@@]21C` [ethynyl estradiol, 17-α-ethynyl estradiol], for which the “loss of bone mineral density” value in data set [1] was “a reduction in the loss of bone mineral density”.
